Laboratory results reported in PMC10008561 (Nature Communications, 2023).
Several values for one entry are separate records, joined by “and”; a condition that tells them apart may be missing. Equal entries are not always repeated. Where two headings read alike, the source gives them in different places.

Tests used:
human KOR (β-arrestin 1) [1] = molecular target: T1, human KOR (β-arrestin 1) (Homo sapiens, UniProt P41145, D105A); assay: cell-based; details: HEK-293T
T1 construct: expressed in transfected cells; host or cells: HEK293T

human KOR (β-arrestin 1) [2] = molecular target: T2, human KOR (β-arrestin 1) (Homo sapiens, UniProt P41145, D155A); assay: cell-based; details: HEK-293T
T2 construct: expressed in transfected cells; host or cells: HEK293T

human KOR (β-arrestin 1) [3] = molecular target: T3, human KOR (β-arrestin 1) (Homo sapiens, UniProt P41145, D334A); assay: cell-based; details: HEK-293T
T3 construct: expressed in transfected cells; host or cells: HEK293T

human KOR (β-arrestin 1) [4] = molecular target: T4, human KOR (β-arrestin 1) (Homo sapiens, UniProt P41145, G319L); assay: cell-based; details: HEK-293T
T4 construct: expressed in transfected cells; host or cells: HEK293T

human KOR (β-arrestin 1) [5] = molecular target: T5, human KOR (β-arrestin 1) (Homo sapiens, UniProt P41145, K227A); assay: cell-based; details: HEK-293T
T5 construct: expressed in transfected cells; host or cells: HEK293T

human KOR (β-arrestin 1) [6] = molecular target: T6, human KOR (β-arrestin 1) (Homo sapiens, UniProt P41145, N326A); assay: cell-based; details: HEK-293T
T6 construct: expressed in transfected cells; host or cells: HEK293T

human KOR (β-arrestin 1) [7] = molecular target: T7, human KOR (β-arrestin 1) (Homo sapiens, UniProt P41145, Q115N); assay: cell-based; details: HEK-293T
T7 construct: expressed in transfected cells; host or cells: HEK293T

human KOR (β-arrestin 1) [8] = molecular target: T8, human KOR (β-arrestin 1) (Homo sapiens, UniProt P41145, R170A); assay: cell-based; details: HEK-293T
T8 construct: expressed in transfected cells; host or cells: HEK293T

human KOR (β-arrestin 1) [9] = molecular target: T9, human KOR (β-arrestin 1) (Homo sapiens, UniProt P41145, R271A); assay: cell-based; details: HEK-293T
T9 construct: expressed in transfected cells; host or cells: HEK293T

human KOR (β-arrestin 1) [10] = molecular target: T10, human KOR (β-arrestin 1) (Homo sapiens, UniProt P41145, R274A); assay: cell-based; details: HEK-293T
T10 construct: expressed in transfected cells; host or cells: HEK293T

human KOR (β-arrestin 1) [11] = molecular target: T11, human KOR (β-arrestin 1) (Homo sapiens, UniProt P41145, T94V); assay: cell-based; details: HEK-293T
T11 construct: expressed in transfected cells; host or cells: HEK293T

human KOR (β-arrestin 1) [12] = molecular target: T12, human KOR (β-arrestin 1) (Homo sapiens, UniProt P41145, Y139L); assay: cell-based; details: HEK-293T
T12 construct: expressed in transfected cells; host or cells: HEK293T

human KOR [13] = molecular target: T13, human KOR (Homo sapiens, UniProt P41145, E209A); assay: cell-based; details: HEK-293T
T13 construct: expressed in transfected cells; host or cells: HEK 293T (ATCC, CRL-3216)

human KOR [14] = molecular target: T14, human KOR (Homo sapiens, UniProt P41145, F114L); assay: cell-based; details: HEK-293T
T14 construct: expressed in transfected cells; host or cells: HEK 293T (ATCC, CRL-3216)

human KOR [15] = molecular target: T15, human KOR (Homo sapiens, UniProt P41145, G319L); assay: cell-based; details: HEK-293T
T15 construct: expressed in transfected cells; host or cells: HEK 293T (ATCC, CRL-3216)

human KOR [16] = molecular target: T16, human KOR (Homo sapiens, UniProt P41145, K227A); assay: cell-based; details: HEK-293T
T16 construct: expressed in transfected cells; host or cells: HEK 293T (ATCC, CRL-3216)

human KOR [17] = molecular target: T17, human KOR (Homo sapiens, UniProt P41145, Q115N); assay: cell-based; details: HEK-293T
T17 construct: expressed in transfected cells; host or cells: HEK 293T (ATCC, CRL-3216)

human KOR [18] = molecular target: T18, human KOR (Homo sapiens, UniProt P41145, S211A); assay: cell-based; details: HEK-293T
T18 construct: expressed in transfected cells; host or cells: HEK 293T (ATCC, CRL-3216)

human KOR [19] = molecular target: T19, human KOR (Homo sapiens, UniProt P41145, S324C); assay: cell-based; details: HEK-293T
T19 construct: expressed in transfected cells; host or cells: HEK 293T (ATCC, CRL-3216)

human KOR [20] = molecular target: T20, human KOR (Homo sapiens, UniProt P41145, W124L); assay: cell-based; details: HEK-293T
T20 construct: expressed in transfected cells; host or cells: HEK 293T (ATCC, CRL-3216)

human KOR [21] = molecular target: T21, human KOR (Homo sapiens, UniProt P41145, W287A); assay: cell-based; details: HEK-293T
T21 construct: expressed in transfected cells; host or cells: HEK 293T (ATCC, CRL-3216)

human KOR [22] = molecular target: T22, human KOR (Homo sapiens, UniProt P41145, Y320L); assay: cell-based; details: HEK-293T
T22 construct: expressed in transfected cells; host or cells: HEK 293T (ATCC, CRL-3216)

KOR K227A = KOR K227A (Homo sapiens, UniProt P41145, K227A); format: cell-based; design: TEV cleavage site (C); tTA transcription factor (C); expressed in transfected cells; host or cells: HTLA cells; details: Log [Drug]
Sequence of KOR K227A (P41145 whole entry K227A): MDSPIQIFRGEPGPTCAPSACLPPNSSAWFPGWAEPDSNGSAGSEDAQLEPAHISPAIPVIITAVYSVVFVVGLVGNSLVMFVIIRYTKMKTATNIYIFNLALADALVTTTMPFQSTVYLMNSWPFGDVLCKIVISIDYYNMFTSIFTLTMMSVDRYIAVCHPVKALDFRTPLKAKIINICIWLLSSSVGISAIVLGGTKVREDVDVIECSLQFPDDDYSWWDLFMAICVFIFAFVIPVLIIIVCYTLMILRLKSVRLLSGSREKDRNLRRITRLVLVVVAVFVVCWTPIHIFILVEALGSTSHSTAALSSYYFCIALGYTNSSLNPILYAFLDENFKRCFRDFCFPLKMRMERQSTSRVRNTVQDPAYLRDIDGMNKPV
Sequence of KOR K227A (P32121 whole entry partner): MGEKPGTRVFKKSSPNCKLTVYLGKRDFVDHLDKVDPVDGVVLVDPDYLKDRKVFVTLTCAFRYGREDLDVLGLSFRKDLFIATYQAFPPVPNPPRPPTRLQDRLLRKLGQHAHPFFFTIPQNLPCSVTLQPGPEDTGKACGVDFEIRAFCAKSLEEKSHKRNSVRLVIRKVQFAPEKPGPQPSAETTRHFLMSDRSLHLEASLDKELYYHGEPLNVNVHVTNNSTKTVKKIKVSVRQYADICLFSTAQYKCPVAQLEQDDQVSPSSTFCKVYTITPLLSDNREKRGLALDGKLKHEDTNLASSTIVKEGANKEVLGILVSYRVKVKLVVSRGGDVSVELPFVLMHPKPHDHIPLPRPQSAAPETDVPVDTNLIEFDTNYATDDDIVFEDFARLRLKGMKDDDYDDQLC

T22 sequence (P41145 whole entry Y320L): as the sequence (P41145 whole entry K227A) above, with A227K, Y320L counted along it
T20 sequence (P41145 whole entry W124L): as the sequence (P41145 whole entry K227A) above, with W124L, A227K counted along it
T15 sequence (P41145 whole entry G319L): as the sequence (P41145 whole entry K227A) above, with A227K, G319L counted along it
T14 sequence (P41145 whole entry F114L): as the sequence (P41145 whole entry K227A) above, with F114L, A227K counted along it
T13 sequence (P41145 whole entry E209A): as the sequence (P41145 whole entry K227A) above, with E209A, A227K counted along it
T18 sequence (P41145 whole entry S211A): as the sequence (P41145 whole entry K227A) above, with S211A, A227K counted along it
T16 sequence (P41145 whole entry K227A): as the sequence (P41145 whole entry K227A) above
T5 sequence (P41145 whole entry K227A): as above
T1 sequence (P41145 whole entry D105A): as the sequence (P41145 whole entry K227A) above, with D105A, A227K counted along it
T8 sequence (P41145 whole entry R170A): as the sequence (P41145 whole entry K227A) above, with R170A, A227K counted along it
T3 sequence (P41145 whole entry D334A): as the sequence (P41145 whole entry K227A) above, with A227K, D334A counted along it
T19 sequence (P41145 whole entry S324C): as the sequence (P41145 whole entry K227A) above, with A227K, S324C counted along it
T9 sequence (P41145 whole entry R271A): as the sequence (P41145 whole entry K227A) above, with A227K, R271A counted along it
T7 sequence (P41145 whole entry Q115N): as the sequence (P41145 whole entry K227A) above, with Q115N, A227K counted along it
T17 sequence (P41145 whole entry Q115N): as the sequence (P41145 whole entry K227A) above, with Q115N, A227K counted along it
T10 sequence (P41145 whole entry R274A): as the sequence (P41145 whole entry K227A) above, with A227K, R274A counted along it
T4 sequence (P41145 whole entry G319L): as the sequence (P41145 whole entry K227A) above, with A227K, G319L counted along it
T12 sequence (P41145 whole entry Y139L): as the sequence (P41145 whole entry K227A) above, with Y139L, A227K counted along it
T6 sequence (P41145 whole entry N326A): as the sequence (P41145 whole entry K227A) above, with A227K, N326A counted along it
T21 sequence (P41145 whole entry W287A): as the sequence (P41145 whole entry K227A) above, with A227K, W287A counted along it
T2 sequence (P41145 whole entry D155A): as the sequence (P41145 whole entry K227A) above, with D155A, A227K counted along it
T11 sequence (P41145 whole entry T94V): as the sequence (P41145 whole entry K227A) above, with T94V, A227K counted along it

Q: What does the source list for `CN(C(=O)/C=C/c1ccoc1)[C@@H]1CC[C@@]2(O)[C@H]3Cc4ccc(O)c5c4[C@@]2(CCN3CC2CC2)[C@H]1O5` [Nalfurafine, nalfurafine]?
A: Emax (human KOR (β-arrestin 1) [1]): 91.6%; Emax (human KOR (β-arrestin 1) [2]): 86.5%; Emax (human KOR (β-arrestin 1) [3]): 71.1%; Emax (human KOR (β-arrestin 1) [4]): 60.4%; Emax (human KOR (β-arrestin 1) [5]): 77.5%; Emax (human KOR (β-arrestin 1) [6]): 65.2%; Emax (human KOR (β-arrestin 1) [7]): 62.2%; Emax (human KOR (β-arrestin 1) [8]): 81.8%; Emax (human KOR (β-arrestin 1) [9]): 101%; Emax (human KOR (β-arrestin 1) [10]): 78.7%; Emax (human KOR (β-arrestin 1) [11]): 73.2%; Emax (human KOR (β-arrestin 1) [12]): 92.8%; Emax (human KOR [13]): 100 ± 2%; activation at 1 pM (human KOR [13]; read-out: cAMP response): 28.4%; activation at 3.162 pM (human KOR [13]; read-out: cAMP response): 77.1%; activation at 10 pM (human KOR [13]; read-out: cAMP response): 90.6%; activation at 31.62 pM (human KOR [13]; read-out: cAMP response): 94.9%; activation at 0.0001 µM (human KOR [13]; read-out: cAMP response): 99.2%; activation at 0.001 µM (human KOR [13]; read-out: cAMP response): 99.5%; activation at 0.01 µM (human KOR [13]; read-out: cAMP response): 101%; activation at 0.1 µM (human KOR [13]; read-out: cAMP response): 100%; activation at 1 µM (human KOR [13]; read-out: cAMP response): 98.2%; activation at […] (human KOR [13]; read-out: cAMP response): 96.6% and 99.9% and 99.6% and 98.7%; Emax (human KOR [14]): 97 ± 4%; activation at 3.162 pM (human KOR [14]; read-out: cAMP response): 9.34%; activation at 31.62 pM (human KOR [14]; read-out: cAMP response): 29.6%; activation at 0.0001 µM (human KOR [14]; read-out: cAMP response): 36.4%; activation at 0.001 µM (human KOR [14]; read-out: cAMP response): 68%; activation at 0.01 µM (human KOR [14]; read-out: cAMP response): 90.9%; activation at 0.1 µM (human KOR [14]; read-out: cAMP response): 99.9%; activation at 1 µM (human KOR [14]; read-out: cAMP response): 97.6%; activation at […] (human KOR [14]; read-out: cAMP response): 66.6% and 88.8% and 97.4% and 103%; Emax (human KOR [15]): 103 ± 4%; activation at 1 pM (human KOR [15]; read-out: cAMP response): 18.4%; activation at 31.62 pM (human KOR [15]; read-out: cAMP response): 24%; activation at 0.0001 µM (human KOR [15]; read-out: cAMP response): 46%; activation at 0.001 µM (human KOR [15]; read-out: cAMP response): 62.9%; activation at 0.01 µM (human KOR [15]; read-out: cAMP response): 94.9%; activation at 0.1 µM (human KOR [15]; read-out: cAMP response): 107%; activation at 1 µM (human KOR [15]; read-out: cAMP response): 104%; activation at […] (human KOR [15]; read-out: cAMP response): 44.6% and 75.9% and 100%; Emax (human KOR [16]): 100 ± 3%; Emax (human KOR [17]): 98 ± 3%; Emax (human KOR [18]): 107 ± 2%; activation at 1 pM (human KOR [18]; read-out: cAMP response): 16.4%; activation at 3.162 pM (human KOR [18]; read-out: cAMP response): 71%; activation at 10 pM (human KOR [18]; read-out: cAMP response): 91.3%; activation at 31.62 pM (human KOR [18]; read-out: cAMP response): 99.8%; activation at 0.0001 µM (human KOR [18]; read-out: cAMP response): 106%; activation at 0.001 µM (human KOR [18]; read-out: cAMP response): 107%; activation at 0.01 µM (human KOR [18]; read-out: cAMP response): 108%; activation at 0.1 µM (human KOR [18]; read-out: cAMP response): 107%; activation at 1 µM (human KOR [18]; read-out: cAMP response): 103%; activation at […] (human KOR [18]; read-out: cAMP response): 107% (2×) and 105% and 104%; Emax (human KOR [19]): 99 ± 2%; Emax (human KOR [20]): 98 ± 3%; activation at 10 pM (human KOR [20]; read-out: cAMP response): 17.5%; activation at 0.0001 µM (human KOR [20]; read-out: cAMP response): 29.6%; activation at 0.001 µM (human KOR [20]; read-out: cAMP response): 65.5%; activation at 0.01 µM (human KOR [20]; read-out: cAMP response): 88.1%; activation at 0.1 µM (human KOR [20]; read-out: cAMP response): 106%; activation at 1 µM (human KOR [20]; read-out: cAMP response): 99.8%; activation at […] (human KOR [20]; read-out: cAMP response): 45.8% and 75.2% and 98.3% and 97.1%; Emax (human KOR [21]): 98 ± 4%; Emax (human KOR [22]): 105 ± 2%; activation at 1 pM (human KOR [22]; read-out: cAMP response): 16.5%; activation at 3.162 pM (human KOR [22]; read-out: cAMP response): 13.2%; activation at 10 pM (human KOR [22]; read-out: cAMP response): 16.1%; activation at 31.62 pM (human KOR [22]; read-out: cAMP response): 35.7%; activation at 0.0001 µM (human KOR [22]; read-out: cAMP response): 59%; activation at 0.001 µM (human KOR [22]; read-out: cAMP response): 95.7%; activation at 0.01 µM (human KOR [22]; read-out: cAMP response): 103%; activation at 0.1 µM (human KOR [22]; read-out: cAMP response): 105%; activation at 1 µM (human KOR [22]; read-out: cAMP response): 105%; activation at […] (human KOR [22]; read-out: cAMP response): 78.6% and 99.7% and 105% (2×); KOR K227A_Arrestin response (Figure S4D) (KOR K227A; M -6, replicate values): 101.315 and 102.717; KOR K227A_Arrestin response (Figure S4D) (KOR K227A; M -6.5, replicate values): 105.822 and 93.8848 and 97.1199; KOR K227A_Arrestin response (Figure S4D) (KOR K227A; M -7, replicate values): 91.3062 and 96.8492 and 89.7833; KOR K227A_Arrestin response (Figure S4D) (KOR K227A; M -7.5, replicate values): 70.8658 and 86.1016; KOR K227A_Arrestin response (Figure S4D) (KOR K227A; M -8, replicate values): 84.9439 and 77.9998; KOR K227A_Arrestin response (Figure S4D) (KOR K227A; M -8.5, replicate values): 65.7403 and 77.6179 and 69.9994; KOR K227A_Arrestin response (Figure S4D) (KOR K227A; M -9, replicate values): 59.6373 and 67.8004 and 59.0282; KOR K227A_Arrestin response (Figure S4D) (KOR K227A; M -9.5, replicate values): 49.3052 and 47.5598 and 61.4935; KOR K227A_Arrestin response (Figure S4D) (KOR K227A; M -10, replicate values): 39.6619 and 44.8012 and 31.3899; KOR K227A_Arrestin response (Figure S4D) (KOR K227A; M -10.5, replicate values): 20.4503 and 25.5006 and 21.705; KOR K227A_Arrestin response (Figure S4D) (KOR K227A; M -11, replicate values): 23.8027 and 10.0134 and 11.9765; KOR K227A_Arrestin response (Figure S4D) (KOR K227A; M -12, replicate values): 12.7008 and 13.5043; KOR K227A_Arrestin response (Figure S4D) (KOR K227A; M -12.5, replicate values): 6.071 and 3.454 and 8.161; KOR K227A_Arrestin response (Figure S4D) (KOR K227A; M -13, replicate values): 5.581 and 8.377 and 4.789; KOR K227A_Arrestin response (Figure S4D) (KOR K227A; M -14, replicate values): 0.5358 and 5.464 and 0.3918
